This is an account of results in ChEMBL document CHEMBL1130681, “Synthesis of 5-substituted quinazolinone derivatives and their inhibitory activity in vitro” (Bioorg Med Chem Lett, 1998).

Common to all, as to assay type: functional, cell-based
Test [1] has as its system L1210. Nature of the test: Concentration required to inhibit L1210 (mouse lymphocytic leukemia) cell lines.
Test [2] relates to LY3.7.2C TK-/- cell line. Nature of the test: Concentration required to inhibit LY3.7.2C TK-/-(mouse lymphoma, thymidine kinase deficient) cell lines.
Test [3] deals with CCRF-CEM. Nature of the test: Concentration required to inhibit CCRF-CEM (human leukemia) cell lines.
For test [4], the system named is HT-29. Briefly: Concentration required to inhibit HT-29 (human colon adenocarcinoma) cell lines.

A word on the IC50: it is the concentration that gives 50% inhibition. Low readings indicate greater potency in that assay, high ones weaker potency in that assay. As to `Cc1ccc2nc(N)nc(O)c2c1Sc1ccc(C(=O)N[C@H](C(=O)O)c2cccc(O)c2)cc1`, the IC50 in test [1] was 700 nM; in test [2], 600 nM; in test [3], 3400 nM; in test [4] it was 17000 nM.

Turning to `Cc1ccc2nc(N)nc(O)c2c1Sc1ccc(C(=O)N[C@H](C(=O)O)c2ccccc2)cc1`, the IC50 in test [1] is 2000 nM; in test [2] it was 800 nM; in test [3], 5400 nM; in test [4] it was above 20000 nM.

Turning to `COC(=O)[C@@H](NC(=O)c1ccc(Sc2c(C)ccc3nc(N)nc(O)c23)cc1)c1cccc(O)c1`, the IC50 in test [1] turned out to be 2000 nM; in test [2], 300 nM; in test [3], 1500 nM; in test [4], 8400 nM.

As to `Cc1ccc2nc(N)nc(O)c2c1Sc1ccc(C(=O)N[C@H](C(=O)O)c2cccc(C(=O)O)c2)cc1`, the IC50 in test [1] is 500 nM; in test [2], 700 nM; in test [3] it was 50 nM; in test [4], 1200 nM.

For `COC(=O)c1cccc([C@H](NC(=O)c2ccc(Sc3c(C)ccc4nc(N)nc(O)c34)cc2)C(=O)OC)c1`, the IC50 is 700 nM in test [1], 700 nM in test [2], 200 nM in test [3] and 600 nM in test [4].

Consider `COC(=O)[C@@H](NC(=O)c1ccc(Sc2c(C)ccc3nc(N)nc(O)c23)cc1)c1ccccc1`, for which the IC50 in test [1] amounted to 400 nM; in test [2], 500 nM; in test [3], 200 nM; in test [4], 600 nM.

Take `Cc1ccc2nc(N)[nH]c(=O)c2c1Sc1ccncc1` [NOLATREXED]: the 50% inhibitory concentration (IC50) amounted to 1100 nM in test [1], 1500 nM in test [2], 800 nM in test [3] and 3700 nM in test [4].
